Measurements published in patent US20110028566A1, “COMPOSITIONS AND PRODUCTS CONTAINING CYCLOALIPHATIC DIOL ANTIMICROBIAL AGENTS AND METHODS OF USING THE COMPOSITIONS AND PRODUCTS” (EASTMAN CHEMICAL COMPANY, priority 2009, published 2011).

Key:
Assay in all cases: MIC comparison of 1,1- and 1,4-CHDM, 96-well plates
Assay type in all cases: cell-based
Details in all cases: for MIC Day 1: 24 H; for MIC Day 2: 48 H; for MIC Day 3: 72 H
C. albicans = system: C. albicans
Protocol: (§1) The antimicrobial activities of 1,4-cyclohexanedimethanol (1,4-CHDM) and 1,1-cyclohexanedimethanol (1,1-CHDM) have been determined. […] MICs were individually calculated for three consecutive days with both 1,1-cyclohexanedimethanol and the 31% cis:69% trans mixture of 1,4-cyclohexanedimethanol. Both compounds were evaluated against a panel of five strains of microorganisms.
(§2) Strains P. aeruginosa, C. albicans, E. coli, A. niger and S. aureus were purchased from the American Type Culture Collection (Manassas, Va.). NUNC flat bottom polystyrene 96 well microtiter plates (NUNC Cat# 269787), and 17×100 mm culture tubes (VWR Cat# 60818-703) were purchased from VWR International, LLC (West Chester, Pa.). Eastman CHDM-D90 and 1,1-CHDM (>99.7% by GC and verified by NMR) were provided by Eastman Chemical Company (Kingsport, Tenn.). All bacterial cultures were grown in BD BBL trypticase soy broth, and all fungal cultures were grown in sabourand dextrose broth purchased from VWR International, LLC (West Chester, Pa.). Absorbance measurements were taken with a TECAN GENios Pro microplate reader.
(§3) A small loopful of inoculum was transferred from a freshly streaked agar plate of each strain to 5 ml of sterile media in a 17×100 mm culture tube. The bacteria were incubated for 20-28 hours and C. albicans for 44-52 hours.
(§4) Stock solutions were prepared for each isomer in the corresponding growth media at a concentration of 5% w/v (1,4-CHDM) or 2.25% w/v (1,1-CHDM). Serial dilutions were prepared with a dilution ratio of 1:1.3333 such that one log range was covered with nine dilutions.
(§5) Two-hundred microliters of each CHDM concentration was transferred into 4 wells of a sterile 96-well plate. Four extra wells of the highest concentration were filled for the uninoculated high-level controls. Eight additional wells were filled with only sterile broth to serve as negative and positive controls. The last well of each CHDM isomer dilution was left uninoculated to serve as controls for background turbidity associated with test compounds. Plates with bacteria or C. albicans were inoculated with 2 μl of seed culture for final concentration of roughly 10^6 CFU/ml for the bacteria and 10^5 CFU/ml for the C. albicans. Plates with A. niger were inoculated with 2 μl of spore suspension prepared above.
(§6) Each plate was covered and incubated at the appropriate temperature and turbidity as a measure of cell density was determined via absorbance measurement at 612 nm using a microplate reader. Measurements were taken at 24, 48 and 72 hours for each plate. The raw data was exported into an Excel spreadsheet and the MIC values were determined and expressed as wt %. The absorbance of each inoculated CHDM well was retrieved by first subtracting out the average reading for each uninoculated well, then by comparison to a positive threshold to determine positive or negative status for growth. The positive threshold was calculated by multiplication of the average absorbance for the inoculated media-only wells by 0.05. The MIC was determined as the lowest test concentration resulting in all three replicate wells displaying values below the positive threshold.

E. coli = system: E. coli
Protocol: as §1, §2, §3, §4, §5, §6

P. aeruginosa = system: P. aeruginosa
Protocol: as §1, §2, §3, §4, §5, §6

S. aureus = system: S. aureus
Protocol: as §1, §2, §3, §4, §5, §6

A. niger = system: A. niger
Protocol: as §1, §2
A. niger was cultured on sabourand dextrose agar plates until a heavy concentration of black spores were visibly apparent. Spores were harvested from the plate by suspension in 3 ml of sabourand dextrose broth utilizing a sterile plastic spreader and sterile transfer pipette.
as §4, §5, §6

Row | Structure (SMILES) | MIC Day 1 (C. albicans) [wt %] | MIC Day 2 (C. albicans) [wt %] | MIC Day 3 (C. albicans) [wt %] | MIC Day 1 (E. coli) [wt %] | MIC Day 2 (E. coli) [wt %] | MIC Day 3 (E. coli) [wt %] | MIC Day 1 (P. aeruginosa) [wt %] | MIC Day 2 (P. aeruginosa) [wt %] | MIC Day 3 (P. aeruginosa) [wt %] | MIC Day 1 (S. aureus) [wt %] | MIC Day 2 (S. aureus) [wt %] | MIC Day 3 (S. aureus) [wt %] | MIC Day 1 (A. niger) [wt %] | MIC Day 2 (A. niger) [wt %] | MIC Day 3 (A. niger) [wt %]
1 | OCC1(CO)CCCCC1 [1,1 CHDM] | 2.25 | 2.25 | 2.25 | 1.26 | 1.26 | 1.26 | 1.26 | 1.26 | 1.26 | 2.25 | 2.25 | 2.25 | >2.25 | >2.25 | >2.25
2 | OCC1CCC(CO)CC1 (stereo not drawn) [1,4 CHDM] | 3.75 | 4.99 | >5.0 | 1.58 | 1.58 | 1.58 | 1.58 | 1.58 | 2.11 | 3.75 | 3.75 | 3.75 | >5.0 | 3.75 | 3.75
